The conditions of series [1]: human gut metagenome, 24 h, 2 µM.
A short description of series [2]: The drug is tested on Z-023 corresponding to metagenome with ENA study accession number: PRJEB37062 and ENA sample accession number: ERS12561822 for biotransformation under anaerobic condition. The drug concentrations were measured over 9 timepoints collected between 0 and 24 hours of incubation by liquid-chromatography-coupled mass spectrometry (LC–MS). The following applies: 2 µM.

Series [3] can be described thus: The drug is tested on WLS-007 corresponding to human gut metagenome with ENA study accession number: PRJEB37062 and ENA sample accession number: ERS12561742 for biotransformation under anaerobic condition. The drug concentrations were measured over 9 timepoints collected between 0 and 24 hours of incubation by liquid-chromatography-coupled mass spectrometry (LC–MS). Conditions: 2 µM.

The conditions of series [4]: human gut metagenome, 24 h, 2 µM. The source holds these as a separate data set.
For series [5] the following is noted: human gut metagenome, 24 h, 2 µM. This is another data set of the same source.
Series [6] can be described thus: The drug is tested on Z-007 corresponding to rat gut metagenome with ENA study accession number: PRJEB37062 and ENA sample accession number: ERS12561807 for biotransformation under anaerobic condition. The drug concentrations were measured over 9 timepoints collected between 0 and 24 hours of incubation by liquid-chromatography-coupled mass spectrometry (LC–MS). The following applies: 2 µM.

Series [7] in a line: The drug is tested on Z-027 corresponding to metagenome with ENA study accession number: PRJEB37062 and ENA sample accession number: ERS12561826 for biotransformation under anaerobic condition. The drug concentrations were measured over 9 timepoints collected between 0 and 24 hours of incubation by liquid-chromatography-coupled mass spectrometry (LC–MS). Conditions: 2 µM.
For series [8] the following is noted: human gut metagenome, 24 h, 2 µM. This is another data set of the same source.
A short description of series [9]: The drug is tested on Z-021 corresponding to metagenome with ENA study accession number: PRJEB37062 and ENA sample accession number: ERS12561820 for biotransformation under anaerobic condition. The drug concentrations were measured over 9 timepoints collected between 0 and 24 hours of incubation by liquid-chromatography-coupled mass spectrometry (LC–MS). The following applies: 2 µM.

The conditions of series [10]: human gut metagenome, 24 h, 2 µM. This is another data set of the same source.
Series [11] is described as follows: The drug is tested on Z-010 corresponding to metagenome with ENA study accession number: PRJEB37062 and ENA sample accession number: ERS12561810 for biotransformation under anaerobic condition. The drug concentrations were measured over 9 timepoints collected between 0 and 24 hours of incubation by liquid-chromatography-coupled mass spectrometry (LC–MS). Conditions: 2 µM.

A short description of series [12]: The drug is tested on WLS-350 corresponding to human gut metagenome with ENA study accession number: PRJEB37062 and ENA sample accession number: ERS12561789 for biotransformation under anaerobic condition. The drug concentrations were measured over 9 timepoints collected between 0 and 24 hours of incubation by liquid-chromatography-coupled mass spectrometry (LC–MS). Conditions: 2 µM.

The conditions of series [13]: human gut metagenome, 24 h, 2 µM. The source holds these as a separate data set.
For series [14] the following is noted: human gut metagenome, 24 h, 2 µM. The source holds these as a separate data set.
For series [15] the following is noted: human gut metagenome, 24 h, 2 µM. The source holds these as a separate data set.
For series [16] the following is noted: human gut metagenome, 24 h, 2 µM. The source holds these as a separate data set.
For series [17] the following is noted: human gut metagenome, 24 h, 2 µM. The source holds these as a separate data set.
Series [18] is described as follows: The drug is tested on Z-022 corresponding to mouse gut metagenome with ENA study accession number: PRJEB37062 and ENA sample accession number: ERS12561821 for biotransformation under anaerobic condition. The drug concentrations were measured over 9 timepoints collected between 0 and 24 hours of incubation by liquid-chromatography-coupled mass spectrometry (LC–MS). The following applies: 2 µM.

For series [19] the following is noted: human gut metagenome, 24 h, 2 µM. This is another data set of the same source.
For series [20] the following is noted: human gut metagenome, 24 h, 2 µM. The source holds these as a separate data set.

The structures appear in SMILES notation.
Further: call rule not given here.

For `O=P(O)(O)O.c1ccc(CN(CC2=NCCN2)c2ccccc2)cc1` [ANTAZOLINE PHOSPHATE], the “Bacterial Biotransformation” value in series [1] is “Compound NOT metabolized”; in series [2], “Compound NOT metabolized”; in [3], “Compound metabolized”; in series [4], “Compound NOT metabolized”; in series [5] it was “Compound NOT metabolized”; in series [6], “Compound NOT metabolized”. Also, the “Bacterial Biotransformation” value is given as “Compound NOT metabolized” in series [7]; “Compound NOT metabolized” in [8]; “Compound NOT metabolized” in [9]; “Compound NOT metabolized” in series [10]; “Compound metabolized” in series [11]; “Compound NOT metabolized” in series [12]. Besides, the “Bacterial Biotransformation” value in [13], in series [14], in [15], in [16], in series [17] and in series [18] was “Compound NOT metabolized” throughout. Besides, the “Bacterial Biotransformation” value is given as “Compound NOT metabolized” in series [19] and “Compound metabolized” in series [20].
With `CN1CCC(=C2c3ccccc3CCc3cccnc32)CC1.O=C(O)/C=C\C(=O)O.O=C(O)/C=C\C(=O)O` [AZATADINE MALEATE], the “Bacterial Biotransformation” value in series [1], in series [2], in series [3], in [4], in series [5] and in series [6] was “Compound NOT metabolized” each time. Moreover, the “Bacterial Biotransformation” value in series [7], in [8], in series [9], in [10], in series [11] and in [12] was “Compound NOT metabolized” throughout. The “Bacterial Biotransformation” value in series [13], in [14], in series [15], in series [16], in series [17] and in series [18] was “Compound NOT metabolized” throughout. The entries for the “Bacterial Biotransformation” value in series [19] and in [20] were “Compound NOT metabolized” and “Compound metabolized”, respectively.
As to `CC(=O)OCC(=O)[C@@]1(O)[C@@H](C)C[C@H]2[C@@H]3CCC4=CC(=O)C=C[C@]4(C)[C@@]3(F)[C@@H](O)C[C@@]21C` [BETAMETHASONE ACETATE], the “Bacterial Biotransformation” value is on record as “Compound metabolized” in series [1]; “Compound metabolized” in series [2]; “Compound metabolized” in [3]; “Compound metabolized” in series [4]; “Compound metabolized” in series [5]; “Compound NOT metabolized” in series [6]. The “Bacterial Biotransformation” value in series [7] is listed as “Compound NOT metabolized”; in series [8], “Compound metabolized”; in [9], “Compound metabolized”; in series [10], “Compound NOT metabolized”; in series [11], “Compound metabolized”; in series [12], “Compound metabolized”. The “Bacterial Biotransformation” value in series [13] was “Compound metabolized”; in [14], “Compound metabolized”; in [15], “Compound NOT metabolized”; in [16] it was “Compound metabolized”; in series [17] it was “Compound metabolized”; in series [18], “Compound metabolized”. Further, the “Bacterial Biotransformation” value in [19] and in [20] was “Compound metabolized” throughout.
Turning to `CC(C)NCC(O)COc1ccc(CCOCC2CC2)cc1` (stereo not given) [BETAXOLOL], the “Bacterial Biotransformation” value was “Compound NOT metabolized” in series [1]; “Compound metabolized” in [2]; “Compound NOT metabolized” in [3]; “Compound NOT metabolized” in series [4]; “Compound NOT metabolized” in [5]; “Compound NOT metabolized” in series [6]. The “Bacterial Biotransformation” value in series [7], in [8], in series [9], in series [10], in [11] and in series [12] was “Compound NOT metabolized” in each case. For the same compound, the “Bacterial Biotransformation” value in series [13] is on record as “Compound NOT metabolized”; in series [14], “Compound NOT metabolized”; in series [15] it was “Compound metabolized”; in [16], “Compound NOT metabolized”; in series [17], “Compound NOT metabolized”; in series [18] it was “Compound NOT metabolized”. Besides, the “Bacterial Biotransformation” value in [19] is on record as “Compound NOT metabolized”; in [20] it was “Compound metabolized”.
On to `CC(C)(Oc1ccc(CCNC(=O)c2ccc(Cl)cc2)cc1)C(=O)O` [BEZAFIBRATE], for which the “Bacterial Biotransformation” value was “Compound metabolized” in [1]; “Compound metabolized” in series [2]; “Compound metabolized” in series [3]; “Compound metabolized” in series [4]; “Compound metabolized” in series [5]; “Compound NOT metabolized” in [6]. The “Bacterial Biotransformation” value in [7] is reported as “Compound NOT metabolized”; in series [8], “Compound metabolized”; in series [9], “Compound metabolized”; in [10] it was “Compound NOT metabolized”; in series [11], “Compound metabolized”; in series [12], “Compound metabolized”. The “Bacterial Biotransformation” value in [13], in series [14], in [15], in [16], in series [17] and in series [18] was “Compound metabolized” each time. The “Bacterial Biotransformation” value in [19] and in [20] was “Compound metabolized” each time.

Source of the values: ChEMBL document CHEMBL5724914, “Linking interpersonal differences in gut microbiota composition and drug biotransformation activity” (2024).
